Results on seven compounds are retold here after patent US20170267727A1, “Conjugates of pH Low Insertion Peptide and Monomethyl Auristatins in the Treatment of Solid Tumors” (Lehigh University, priority 2016, published 2017).

“Also recorded” adds a separate entry of the source. Positions of bridges follow the written chain, without caps; N, C: chain ends. Non-standard residues stand in square brackets, D forms with d. Residues, ends and D or L forms follow the SMILES beside them. Chains are numbered I, II in the order given. No end group written: not given here. *: point of attachment. Dolaproine = CO[C@@H]([C@@H]1CCCN1)[C@@H](C)C(=O)O; Dil = CC[C@H](C)[C@H](NC)[C@@H](CC(=O)O)OC; X1 = C[C@@H](N*)[C@@H](O)c1ccccc1; NMeV = CN[C@H](C(=O)O)C(C)C; Mpa = O=C(O)CCS

The IC50 is the concentration that gives 50% inhibition.

The subject of data set [1] is HeLa cells. In words: Anti-proliferation Assay (2 hours treatment at pH 7.4 or 5.0, 72 hours growth, MTT). The method, then:
(§1) FIG. 3A, FIG. 3C and FIG. 3E show HeLa cells treated with pHLIP(WT)-MMAE, pHLIP(D25E)-MMAE, and MMAE(linker), respectively. FIG. 3B, FIG. 3D and FIG. 3F show MDA-MB-231 cells treated with pHLIP(WT)-MMAE, pHLIP(D25E)-MMAE, and MMAE(linker), respectively. Black columns represent cells treated at pH 7.4 and cells treated at low pH are shown in grey. For each condition, 3,000 cells/well (96-well plate) were seeded, allowed to adhere overnight, treated for 2 hours, washed once with media and grown for 72 hour in complete medium at physiologic pH. Cell viability was assessed with the MTT assay. All measurements were normalized to the media control (0 μM, pH 7.4), as 100% cell viability. Results are shown as mean±SD (n=6-9).
HeLa cells treated with pHLIP(WT)-MMAF (FIG. 9A), pHLIP(D25E)-MMAF (FIG. 9B), pHLIP(P20G)-MMAF (FIG. 9C), and pHLIP(R11Q)-MMAF (FIG. 9D). Circles represent cells treated at pH 7.4 and squares represent cells treated at pH 5.0. Results are shown as the mean±SEM (n=6-9).
(§2) Anti-proliferation Assay. HeLa and MDA-MB-231 cells were seeded in 96-well plates at a density of 3,000 cells/well and incubated overnight. Before treatment, construct aliquots were solubilized in an appropriate volume of DMEM without FBS (pH 7.4)—so that upon pH adjustment the desired treatment concentration is obtained—and gently sonicated for 30-60 seconds using a bath sonicator (Branson Ultrasonics). After removal of cell media, this treatment solution was added to each well and incubated at 37° C. for 5-10 minutes. The pH was then adjusted to the desired value using a pre-established volume of DMEM, pH 2.0 buffered with citric acid (final volume=50 μL) and the plate was incubated at 37° C. for 2 hours. After treatment, the media was removed, cells were washed once with 100 μL of complete DMEM, and 100 μL of complete medium was added to each well before returning the plate to the incubator. Treatment solutions were collected and their pH values measured using a micro-combination pH probe (Microelectrodes, Inc.). […] Cell viability was determined after 72 hours using the colorimetric MTT assay. Briefly, 10 μL of a 5 mg/mL MTT stock solution was added to the treated cells and incubated for 2 hours at 37° C. The resulting formazan crystals were solubilized in 200 μL DMSO and the absorbance measured at 580 nm using an Infinite 200 PRO microplate reader (Tecan). Cell viability was calculated against control cells treated with media at physiologic pH.
(§3) Inhibition of Cell Proliferation. The ability of pHLIP to move MMAE across the cell membrane and to inhibit cancer cell proliferation in concentration and pH-dependent manners was evaluated. Cell treatments for both pHLIP(WT)-MMAE and pHLIP(D25E)-MMAE constructs were carried out with conjugate concentrations ranging from 1.25 to 10 μM at either pH 7.4 or 5.0. After a 2-hour incubation at 37° C., the treatment media was replaced by fresh media, and cells were grown for an additional 72 hours at normal pH before assessing cell viability using the MTT assay. […] This treatment protocol is quite stringent when compared to the typical multi-days exposure treatments used with free drugs (FIG. 6A and FIG. 6B).

Another data set deals with MDA-MB-231 cells. The data set is described as above. On the procedure:
as §1, §2, §3

The conditions of data set [2]: cited from earlier work.
The conditions of data set [3]: cited from earlier work. The source holds these as a separate data set.
The conditions of data set [4]: cited from earlier work. The source holds these as a separate data set.
In the next data set the test system is HeLa tumors. Conditions: end of the three week study, n=8. The method, then:
HeLa (ATCC#CCL-2) were injected subcutaneously into the inguinal space of female Ncr nu/nu mice. Tumors were allowed to develop until they were approximately 75 mm^3 in size. […] On days 1, 3, 5, and 8, animals were injected intravenously with 200 microliters of either pHLIP-MMAF (20 microM in PBS+1% DMSO) or vehicle control (PBS+1% DMSO). Tumors were measured with calipers on routine basis for approximately 3 weeks and tumor volumes calculated with the formula: length×width×(height×0.5). Animals were euthanized when tumors reached a volume of 500 mm^3. FIG. 10A depicts tumor growth as a function of initial tumor volume. FIG. 10B depicts tumor volume. FIG. 10C depicts overall survival.
HeLa (ATCC#: CCL-2) were injected subcutaneously (s.c.) into the inguinal space of female Ncr nu/nu mice. Tumors were allowed to develop until they were approximately 75 mm^3 in size. […] On days 1, 3, 5, and 8 animals were injected intravenously with 200 microliters of either pHLIP-MMAF (20 microM in PBS+1% DMSO) or vehicle control (PBS+1% DMSO). Tumors were measured with calipers on routine basis for approximately 3 weeks and tumor volumes calculated with the formula Length×Width×(Height×0.5). […] A tumor volume of 500 mm^3 was prospectively set as the stopping point for this study.

Data set [5] is described as follows: Toxicity Studies (CBC and comprehensive metabolic panel). In kind it is in vivo. The conditions noted are these: four 1 mg/kg injections on days 1, 3, 5 and 7; monitored 2 weeks after final injection. On the procedure: Four one milligram/kilogram (1 mg/kg) injections of pHLIP(WT)-MMAF are given to subjects on days 1, 3, 5 and 7. Overall health, liver and kidney function, and electrolytes are monitored using a complete blood count (CBC) and comprehensive metabolic panel, for a period of 2 weeks after the final injection.

The subject of another data set is A431 tumors. The conditions noted are these: i.p., 1 mg/kg.
Data set [6] deals with HeLa cells. Put plainly: Cell proliferation with free drug, 72 hours incubation, MTT assay. It is filed as cell-based, Human. The conditions noted are these: incubated with the cells for 72 hours; read-out: IC50 against HeLa cells. On the procedure:
FIG. 6A and FIG. 6B show inhibition of HeLa (FIG. 6A) and MDA-MB-231 (FIG. 6B) cell proliferation by free MMAE modified with a succinimide nitrophenyl-based linker (MMAE+linker) and by unmodified MMAE. For each cell assay 3,000 cells/well were seeded, allowed to adhere overnight and incubated with either compound for 72 hours in complete medium at physiologic pH. Cell viability was determined with the MTT assay. All measurements were normalized to the 1% DMSO controls. Results are shown as mean±SD (n=6). Data were fitted with a sigmoidal dose response function in Prism for Mac (GraphPad Software, Inc.).
Cell Culture. Human cervical adenocarcinoma HeLa cells and human breast adenocarcinoma MDA-MB-231 cells were cultured in Dulbecco's modified Eagle's medium (DMEM supplemented with 10% FBS, 100 U/mL penicillin, and 0.1 mg/mL streptomycin in a humidified atmosphere of 5% CO2 at 37° C.
A general note: Formazan colour is commonly taken as a measure of viable cells.

The mark [7] stands for this setting: 2.5 μL (so in the source), low pH.

As to “pHLIP(D25E) (AAEQNPIYWARYADWLFTTPLLLLELALLVDADEGTCG-NH2) [reference compound]”, the “effect of peptide alone on cell viability” value is listed as “not cytotoxic; also recorded: neither pHLIP(WT) or pHLIP(D25E) peptides have any harmful effects” in the data set with HeLa cells [1] (10 μM, pH 7.4 or pH 5.0) and “not cytotoxic; also recorded: neither pHLIP(WT) or pHLIP(D25E) peptides have any harmful effects” with MDA-MB-231 cells (10 μM, pH 7.4 or pH 5.0). Also, the pKa of insertion in [2] is on record as 6.49.
In the case of `CC[C@H](C)[C@@H]([C@@H](CC(=O)N1CCC[C@H]1[C@H](OC)[C@@H](C)C(=O)N[C@@H](Cc1ccccc1)c1nccs1)OC)N(C)C(=O)[C@@H](NC(=O)[C@H](C(C)C)N(C)C)C(C)C` [Dolastatin 10], in data set [3], the “Log P o/w” value is on record as 3.4. The IC50 in [4] is 0.1 nM.
Take `CC[C@H](C)[C@@H]([C@@H](CC(=O)N1CCC[C@H]1[C@H](OC)[C@@H](C)C(=O)N[C@@H](Cc1ccccc1)C(=O)O)OC)N(C)C(=O)[C@@H](NC(=O)[C@@H](NC)C(C)C)C(C)C` [MMAF, monomethyl auristatin F] (H-[NMeV]V[Dil][Dolaproine]F-OH): the “Log P o/w” value in data set [3] is 0.7. The IC50 in data set [4] was 105 to 250 nM.
For `CC[C@H](C)[C@@H]([C@@H](CC(=O)N1CCC[C@H]1[C@H](OC)[C@@H](C)C(=O)N[C@@H](Cc1ccccc1)C(=O)OC)OC)N(C)C(=O)[C@@H](NC(=O)[C@@H](NC)C(C)C)C(C)C` [MMAF-Ome, monomethyl auristatin F-OMe] (H-[NMeV]V[Dil][Dolaproine]F-OMe), the “Log P o/w” value in [3] is reported as 2.8. For the same compound, in [4], the IC50 is 0.001 nM.
Take “I: AAEQNPIYWARYADWLFTTPLLLLDLALLVDADEGTCG-NH2 / II: [Mpa][NMeV]V[Dil][Dolaproine]F (disulfide I:37-II:1; C-terminus assumed) [pHLIP(WT)-MMAF]”: the “improvement over treatments with pHLIP(WT)-MMAE” value in the data set with HeLa cells [1] is listed as “ca. 100 fold”. For the same compound, in the data set with HeLa cells [1] (pH 7.4 versus pH 5.0), the cell killing result was “clear pH-selective and concentration-dependent killing”. For the same compound, the “animals removed for tumor size exceeding 500 mm^3” value in the data set with HeLa tumors was “only a single animal”. Moreover, the “overall health, liver and kidney function, electrolytes” value in data set [5] is “Clinically significant differences in overall health, liver and kidney function, and electrolytes were not observed”. For the same compound, the “effect on A431 tumors” value with A431 tumors is “Analogous results were obtained”.
As for amanitin, in data set [2], the pKa of insertion is recorded as 5.9.
Turning to `CC[C@H](C)[C@@H]([C@@H](CC(=O)N1CCC[C@H]1[C@H](OC)[C@@H](C)C(=O)N[C@H](C)[C@@H](O)c1ccccc1)OC)N(C)C(=O)[C@@H](NC(=O)[C@@H](NC)C(C)C)C(C)C` [MMAE, monomethyl auristatin E, reference compound] (H-[NMeV]V[Dil][Dolaproine]-X1), the figures for the IC50 (in the data set on HeLa cells [6]; in data set [4]) were ~4 nM and 0.1 to 2 nM, respectively. The cytotoxicity is 20-30% in the data set with HeLa cells [1] (setting [7]); “about 70%” in the data set with HeLa cells [1] (physiological pH, 5 μM); 20-30% in the data set with MDA-MB-231 cells (setting [7]). Further, the “Log P o/w” value in data set [3] is given as 2.2.
